pIC50: −log10 of the molar value. “And” between values parts separate entries of the source, which are not always exact repeats. Equal values may be shown once.
Test system: 885512-296-R-J2-PDC complex spheroid growth, % test/control
Experiment: Anticancer human tumor 885512-296-R-J2-PDC patient-derived breast carcinoma cell line growth inhibition [Asc]
Conditions: for viability, T/C: stronger effect = lower value; active = viability on the fitted dose curve at most 10% of control; inactive = the rest
In short: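 Stromal components (HUVEC and hMSC) are co-assembled with the cancer cells into multicellular spheroids. Drugs are then added singly or paired, at concentrations falling by half-log increments from a clinically achievable maximum, capped at 10 microM without known Cmax.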

[1] = curve of first compound, second compound 0.03 µM
[2] = curve of first compound, second compound 0.0949 µM
[3] = curve of first compound, second compound 0.3 µM
[4] = curve of first compound, second compound 0.949 µM
[5] = curve of first compound, second compound 3 µM
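Note: spheroids exposed to compounds for seven days.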
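Throughout, for viability, T/C: 100% = DMSO vehicle control wells.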

Cc1nc(N2CCC3(CC2)COC(C)C3N)c(CO)nc1Sc1ccnc(N)c1Cl (centres undefined) + CCN1C(C(=O)NC23CCC(C(=O)O)(CC2)CC3)C(c2cccc(Cl)c2F)C2(C(=O)Nc3cc(Cl)ccc32)C12CCCCC2
6.44: pIC50 [1]
6.78: pIC50 [3]
inactive: viability, T/C (second compound 0.03 µM, first compound 0.00949 µM) 90.6% | viability, T/C (second compound 0.03 µM, first compound 0.03 µM) 79% | viability, T/C (second compound 0.03 µM, first compound 0.0949 µM) 59.8% | viability, T/C (second compound 0.03 µM, first compound 0.3 µM) 51.6% | viability, T/C (second compound 0.03 µM, first compound 0.949 µM) 45.2% | viability, T/C (second compound 0.03 µM, first compound 3 µM) 35.4% | viability, T/C (second compound 0.0949 µM, first compound 0.00949 µM) 96.5% | viability, T/C (second compound 0.0949 µM, first compound 0.03 µM) 78.9% | viability, T/C (second compound 0.0949 µM, first compound 0.0949 µM) 51.2% | viability, T/C (second compound 0.0949 µM, first compound 0.3 µM) 45.4% | viability, T/C (second compound 0.0949 µM, first compound 0.949 µM) 41.3% | viability, T/C (second compound 0.0949 µM, first compound 3 µM) 35.5% | viability, T/C (second compound 0.3 µM, first compound 0.00949 µM) 82.3% | viability, T/C (second compound 0.3 µM, first compound 0.03 µM) 60.2% | viability, T/C (second compound 0.3 µM, first compound 0.0949 µM) 51.6% | viability, T/C (second compound 0.3 µM, first compound 0.3 µM) 53.1% | viability, T/C (second compound 0.3 µM, first compound 0.949 µM) 42.8% | viability, T/C (second compound 0.3 µM, first compound 3 µM) 36.9% | viability, T/C (second compound 0.949 µM, first compound 0.00949 µM) 59.3% | viability, T/C (second compound 0.949 µM, first compound 0.03 µM) 51.1% | viability, T/C (second compound 0.949 µM, first compound 0.0949 µM) 46.9% | viability, T/C (second compound 0.949 µM, first compound 0.3 µM) 46.2% | viability, T/C (second compound 0.949 µM, first compound 0.949 µM) 39.1% | viability, T/C (second compound 0.949 µM, first compound 3 µM) 35.2% | viability, T/C (second compound 3 µM, first compound 0.00949 µM) 39.3% | viability, T/C (second compound 3 µM, first compound 0.03 µM) 35% | viability, T/C (second compound 3 µM, first compound 0.0949 µM) 28.1% | viability, T/C (second compound 3 µM, first compound 0.3 µM) 32% | viability, T/C (second compound 3 µM, first compound 0.949 µM) 30.3% | viability, T/C (second compound 3 µM, first compound 3 µM) 27.1%
7.22: pIC50 [4]
6.87: pIC50 [2]
> 8.02: pIC50 [5]

C#Cc1c(F)ccc2cc(O)cc(-c3ncc4c(N5CC6CCC(C5)N6)nc(OCC56CCCN5CC(F)C6)nc4c3F)c12 (centres undefined)
< 5.00: pIC50 (curve of compound)
inactive: viability, T/C (compound 0.0316 µM) 93.6% and 96.8% and 95.3% | viability, T/C (compound 0.1 µM) 103% (2×) and 91.5% | viability, T/C (compound 0.316 µM) 89.2% and 72.3% and 99.9% | viability, T/C (compound 1 µM) 99.7% and 72.6% and 93.5% | viability, T/C (compound 3.16 µM) 101% and 93.8% and 87.5% | viability, T/C (compound 10 µM) 97.2% and 80.2% and 71.9%

Cc1nc(N2CCC3(CC2)COC(C)C3N)c(CO)nc1Sc1ccnc(N)c1Cl (centres undefined)
inactive: viability, T/C (compound 0.00949 µM) 82.5% and 83.1% and 76% | viability, T/C (compound 0.03 µM) 68.2% and 68.5% and 70.9% | viability, T/C (compound 0.0949 µM) 59.3% and 59.5% and 63.1% | viability, T/C (compound 0.3 µM) 54.2% and 53% and 54% | viability, T/C (compound 0.949 µM) 45.2% and 48% and 39.2% | viability, T/C (compound 3 µM) 36.6% and 38.9% and 36.2%
6.39 and 6.34 and 6.43: pIC50 (curve of compound)

Cn1ncnc1[C@H]1c2n[nH]c(=O)c3cc(F)cc(c23)N[C@@H]1c1ccc(F)cc1 + Cc1c(S(C)(=O)=O)c(-c2cc(F)cc(N3CCN(c4ccc(NS(=O)(=O)c5ccc(NC(CCN6CCC(C(=O)OCCCP(=O)(O)O)CC6)CSc6ccccc6)c(S(=O)(=O)C(F)(F)F)c5)cc4)CC3)c2)c(-c2ccc(Cl)cc2)n1C(C)C
7.76: pIC50 (curve of first compound, second compound 0.1 µM) | pIC50 (curve of first compound, second compound 1 µM)
inactive: viability, T/C (second compound 0.1 µM, first compound 0.000316 µM) 85.5% | viability, T/C (second compound 0.1 µM, first compound 0.001 µM) 78.4% | viability, T/C (second compound 0.1 µM, first compound 0.00316 µM) 66.3% | viability, T/C (second compound 0.1 µM, first compound 0.01 µM) 53.1% | viability, T/C (second compound 0.1 µM, first compound 0.0316 µM) 47.5% | viability, T/C (second compound 0.1 µM, first compound 0.1 µM) 29.1% | viability, T/C (second compound 0.316 µM, first compound 0.000316 µM) 105% | viability, T/C (second compound 0.316 µM, first compound 0.001 µM) 77.6% | viability, T/C (second compound 0.316 µM, first compound 0.00316 µM) 85.9% | viability, T/C (second compound 0.316 µM, first compound 0.01 µM) 58.5% | viability, T/C (second compound 0.316 µM, first compound 0.0316 µM) 54.2% | viability, T/C (second compound 0.316 µM, first compound 0.1 µM) 26.6% | viability, T/C (second compound 1 µM, first compound 0.000316 µM) 87.1% | viability, T/C (second compound 1 µM, first compound 0.001 µM) 91.1% | viability, T/C (second compound 1 µM, first compound 0.00316 µM) 78.4% | viability, T/C (second compound 1 µM, first compound 0.01 µM) 55.3% | viability, T/C (second compound 1 µM, first compound 0.0316 µM) 44.1% | viability, T/C (second compound 1 µM, first compound 0.1 µM) 27.9% | viability, T/C (second compound 3.16 µM, first compound 0.000316 µM) 88% | viability, T/C (second compound 3.16 µM, first compound 0.001 µM) 77.1% | viability, T/C (second compound 3.16 µM, first compound 0.00316 µM) 77.8% | viability, T/C (second compound 3.16 µM, first compound 0.01 µM) 66.2% | viability, T/C (second compound 3.16 µM, first compound 0.0316 µM) 41.5% | viability, T/C (second compound 3.16 µM, first compound 0.1 µM) 27.9% | viability, T/C (second compound 10 µM, first compound 0.000316 µM) 120% | viability, T/C (second compound 10 µM, first compound 0.001 µM) 97.9% | viability, T/C (second compound 10 µM, first compound 0.00316 µM) 82.8% | viability, T/C (second compound 10 µM, first compound 0.01 µM) 73% | viability, T/C (second compound 10 µM, first compound 0.0316 µM) 47.2% | viability, T/C (second compound 10 µM, first compound 0.1 µM) 27.9%
7.67: pIC50 (curve of first compound, second compound 3.16 µM)
7.54: pIC50 (curve of first compound, second compound 10 µM)
7.58: pIC50 (curve of first compound, second compound 0.316 µM)

COc1c(OCCCN2CCOCC2)ccc2c3n(c(=NC(=O)c4cnc(N)nc4)nc12)CCN3 + CCN1C(C(=O)NC23CCC(C(=O)O)(CC2)CC3)C(c2cccc(Cl)c2F)C2(C(=O)Nc3cc(Cl)ccc32)C12CCCCC2
> 8.50: pIC50 [5]
6.59: pIC50 [2]
6.55: pIC50 [1]
6.69: pIC50 [3]
inactive: viability, T/C (second compound 0.03 µM, first compound 0.00316 µM) 80.1% | viability, T/C (second compound 0.03 µM, first compound 0.01 µM) 87.9% | viability, T/C (second compound 0.03 µM, first compound 0.0316 µM) 93.5% | viability, T/C (second compound 0.03 µM, first compound 0.1 µM) 72.6% | viability, T/C (second compound 0.03 µM, first compound 0.316 µM) 48.3% | viability, T/C (second compound 0.0949 µM, first compound 0.00316 µM) 73.7% | viability, T/C (second compound 0.0949 µM, first compound 0.01 µM) 88.1% | viability, T/C (second compound 0.0949 µM, first compound 0.0316 µM) 79.8% | viability, T/C (second compound 0.0949 µM, first compound 0.1 µM) 64.7% | viability, T/C (second compound 0.0949 µM, first compound 0.316 µM) 47.4% | viability, T/C (second compound 0.3 µM, first compound 0.00316 µM) 82.7% | viability, T/C (second compound 0.3 µM, first compound 0.01 µM) 68.5% | viability, T/C (second compound 0.3 µM, first compound 0.0316 µM) 80.1% | viability, T/C (second compound 0.3 µM, first compound 0.1 µM) 63.2% | viability, T/C (second compound 0.3 µM, first compound 0.316 µM) 41.2% | viability, T/C (second compound 0.949 µM, first compound 0.00316 µM) 61.5% | viability, T/C (second compound 0.949 µM, first compound 0.01 µM) 54.5% | viability, T/C (second compound 0.949 µM, first compound 0.0316 µM) 64.4% | viability, T/C (second compound 0.949 µM, first compound 0.1 µM) 50% | viability, T/C (second compound 0.949 µM, first compound 0.316 µM) 38.8% | viability, T/C (second compound 3 µM, first compound 0.00316 µM) 47.1% | viability, T/C (second compound 3 µM, first compound 0.01 µM) 32.4% | viability, T/C (second compound 3 µM, first compound 0.0316 µM) 28.6% | viability, T/C (second compound 3 µM, first compound 0.1 µM) 35.4% | viability, T/C (second compound 3 µM, first compound 0.316 µM) 32.6% | viability, T/C (second compound 3 µM, first compound 1 µM) 6.56%
active: viability, T/C (second compound 0.03 µM, first compound 1 µM) 6.36% | viability, T/C (second compound 0.0949 µM, first compound 1 µM) 6.12% | viability, T/C (second compound 0.3 µM, first compound 1 µM) 6.26% | viability, T/C (second compound 0.949 µM, first compound 1 µM) 6.82%
6.90: pIC50 [4]

Source: PubChem BioAssay AID1963447 (Molecular Pharmacology Branch, DTP, NCI, 2024)
